Test results: patent publication US11739074B2, “Ras inhibitors” (Revolution Medicines, Inc., priority 2019, dated 2023)
Like-named read-outs stand apart in the source and are kept apart here.

Tests used:
[1] = target: T1, NRAS G12C (Homo sapiens, UniProt P01111+P62937, G12C); test: Ras-Raf disruption/FRET/MOA assay, NRAS G12C; assay type: biochemical; conditions: NRAS G12C; read-out: NRAS G12C FRET data IC50
T1 construct: His6
Excerpt: (§1) Disruption of B-Raf Ras-Binding Domain (BRAF^RBD) Interaction with K-Ras by Compounds of the Invention (Also Called a FRET Assay or an MOA Assay)
(§2) Note—The following protocol describes a procedure for monitoring disruption of K-Ras G12C (GMP-PNP) binding to BRAF^RBD by a compound of the invention. This protocol may also be executed substituting other Ras proteins or nucleotides, such as K-Ras G12D and K-Ras G13D.
(§3) The purpose of this biochemical assay was to measure the ability of test compounds to facilitate ternary complex formation between a nucleotide-loaded K-Ras isoform and Cyclophilin A; the resulting ternary complex disrupts binding to a BRAF^RBD construct, inhibiting K-Ras signaling through a RAF effector.
(§4) In assay buffer containing 25 mM HEPES pH 7.3, 0.002% Tween20, 0.1% BSA, 100 mM NaCl and 5 mM MgCl2, tagless Cyclophilin A, His6-K-Ras-GMPPNP, and GST-BRAF^RBD were combined in a 384-well assay plate at final concentrations of 25 μM, 12.5 nM, and 50 nM, respectively. Compound was present in plate wells as a 10-point 3-fold dilution series starting at a final concentration of 30 μM. After incubation at 25° C. for 3 hours, a mixture of anti-His Eu-W1024 and anti-GST allophycocyanin was then added to assay sample wells at final concentrations of 10 nM and 50 nM, respectively, and the reaction incubated for an additional 1.5 hours. […] Compounds that facilitate disruption of a K-Ras:RAF complex were identified as those eliciting a decrease in the TR-FRET ratio relative to DMSO control wells.

[2] = target: KRAS G13C (Homo sapiens, UniProt P01116+P62937, G13C); test: Ras-Raf disruption/FRET/MOA assay, KRAS G13C; assay type: biochemical; conditions: disruption of BRAF RBD binding, with Cyclophilin A; read-out: KRAS G13C FRET IC50
Sequence of KRAS G13C (P01116 1-169 isoform P01116-2 G13C limits assumed): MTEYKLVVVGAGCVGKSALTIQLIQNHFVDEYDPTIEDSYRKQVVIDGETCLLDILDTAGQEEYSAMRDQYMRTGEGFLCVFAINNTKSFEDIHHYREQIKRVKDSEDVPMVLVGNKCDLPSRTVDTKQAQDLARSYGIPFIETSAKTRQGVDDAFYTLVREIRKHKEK
Sequence of KRAS G13C (P62937 whole entry): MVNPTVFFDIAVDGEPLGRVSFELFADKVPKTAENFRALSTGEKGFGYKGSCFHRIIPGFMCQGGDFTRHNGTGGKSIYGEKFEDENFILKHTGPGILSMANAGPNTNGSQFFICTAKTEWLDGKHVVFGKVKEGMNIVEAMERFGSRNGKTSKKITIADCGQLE
Excerpt: as §1, §2, §3, §4

[3] = target: KRAS G12D (Homo sapiens, UniProt P01116+P62937, G12D); test: Ras-Raf disruption/FRET/MOA assay, KRAS G12D; assay type: biochemical; conditions: disruption of BRAF RBD binding, with Cyclophilin A; read-out: KRAS G12D FRET IC50
Sequence of KRAS G12D (P01116 1-169 isoform P01116-2 G12D limits assumed): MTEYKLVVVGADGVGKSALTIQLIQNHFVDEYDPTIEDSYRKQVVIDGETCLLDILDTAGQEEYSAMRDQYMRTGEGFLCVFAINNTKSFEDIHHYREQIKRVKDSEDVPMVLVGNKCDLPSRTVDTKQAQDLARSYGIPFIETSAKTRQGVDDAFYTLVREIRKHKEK
Sequence of KRAS G12D (P62937 whole entry): as the sequence (P62937 whole entry) above
Excerpt: as §1, §2, §3, §4

[4] = target: KRAS G13D (Homo sapiens, UniProt P01116+P62937, G13D); test: Ras-Raf disruption/FRET/MOA assay, KRAS G13D; assay type: biochemical; conditions: disruption of BRAF RBD binding, with Cyclophilin A; read-out: KRAS G13D FRET IC50
Sequence of KRAS G13D (P01116 1-169 isoform P01116-2 G13D limits assumed): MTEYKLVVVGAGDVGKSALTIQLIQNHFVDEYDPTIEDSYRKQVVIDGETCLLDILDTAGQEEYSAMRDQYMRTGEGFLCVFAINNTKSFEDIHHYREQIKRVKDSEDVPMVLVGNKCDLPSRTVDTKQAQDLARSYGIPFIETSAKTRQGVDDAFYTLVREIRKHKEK
Sequence of KRAS G13D (P62937 whole entry): as the sequence (P62937 whole entry) above
Excerpt: as §1, §2, §3, §4

[5] = system: AsPC-1 (K-Ras G12D); test: CellTiter-Glo cell viability assay, AsPC-1; assay type: cell-based; conditions: Homo sapiens, ASPC1, 120 h, read-out: AsPC-1 Cell Viability IC50
In short: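 Cells already in plates received compound by direct dispensing. After incubation to day 5, plates sat at room temperature roughly 30 minutes, then ATP-based luminescence was measured and values derived from a four-parameter fit of DMSO-normalized data.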

[6] = target: KRAS G12C (Homo sapiens, UniProt P01116+P62937, G12C); test: Ras-Raf disruption/FRET/MOA assay, KRAS G12C; assay type: biochemical; conditions: disruption of BRAF RBD binding, with Cyclophilin A; read-out: KRAS G12C FRET IC50
Sequence of KRAS G12C (P01116 1-169 isoform P01116-2 G12C limits assumed): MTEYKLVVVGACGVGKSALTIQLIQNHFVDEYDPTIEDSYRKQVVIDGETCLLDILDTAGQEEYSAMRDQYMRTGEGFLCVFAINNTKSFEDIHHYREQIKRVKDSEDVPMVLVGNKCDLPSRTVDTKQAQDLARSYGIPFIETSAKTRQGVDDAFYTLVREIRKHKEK
Sequence of KRAS G12C (P62937 whole entry): as the sequence (P62937 whole entry) above
Excerpt: as §1, §2, §3, §4

[7] = target: KRAS G12V (Homo sapiens, UniProt P01116+P62937, G12V); test: Ras-Raf disruption/FRET/MOA assay, KRAS G12V; assay type: biochemical; conditions: disruption of BRAF RBD binding, with Cyclophilin A; read-out: KRAS G12V FRET IC50
Sequence of KRAS G12V (P01116 1-169 isoform P01116-2 G12V limits assumed): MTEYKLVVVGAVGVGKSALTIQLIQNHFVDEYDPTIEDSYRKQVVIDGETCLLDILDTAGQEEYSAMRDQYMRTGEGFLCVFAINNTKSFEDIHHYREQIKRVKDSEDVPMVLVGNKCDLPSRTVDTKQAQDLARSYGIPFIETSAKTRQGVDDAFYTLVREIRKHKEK
Sequence of KRAS G12V (P62937 whole entry): as the sequence (P62937 whole entry) above
In short: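 In this biochemical mechanism-of-action format, 12.5 nM GMPPNP-bound KRAS and 50 nM BRAF^RBD are mixed with 25 μM Cyclophilin A and dilution series of compound. After a 3 h incubation, tag-directed FRET antibodies report remaining KRAS:RAF association.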

[8] = target: KRAS G12S (Homo sapiens, UniProt P01116+P62937, G12S); test: Ras-Raf disruption/FRET/MOA assay, KRAS G12S; assay type: biochemical; conditions: disruption of BRAF RBD binding, with Cyclophilin A; read-out: KRAS G12S FRET IC50
Sequence of KRAS G12S (P01116 1-169 isoform P01116-2 G12S limits assumed): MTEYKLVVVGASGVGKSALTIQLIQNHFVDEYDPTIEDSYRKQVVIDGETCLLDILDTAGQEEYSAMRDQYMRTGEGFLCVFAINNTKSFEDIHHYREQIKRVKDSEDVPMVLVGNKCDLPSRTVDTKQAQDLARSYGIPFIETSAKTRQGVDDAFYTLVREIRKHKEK
Sequence of KRAS G12S (P62937 whole entry): as the sequence (P62937 whole entry) above
Excerpt: as §1, §2, §3, §4

[9] = system: AsPC-1 (K-Ras G12D); test: Potency assay: pERK in AsPC-1 cells; assay type: cell-based; conditions: Homo sapiens
[10] = target: KRAS WT (Homo sapiens, UniProt P01116+P62937); test: Ras-Raf disruption/FRET/MOA assay, KRAS WT; assay type: biochemical; conditions: disruption of BRAF RBD binding, with Cyclophilin A; read-out: KRAS WT FRET IC50
Sequence of KRAS WT (P01116 1-169 isoform P01116-2 limits assumed): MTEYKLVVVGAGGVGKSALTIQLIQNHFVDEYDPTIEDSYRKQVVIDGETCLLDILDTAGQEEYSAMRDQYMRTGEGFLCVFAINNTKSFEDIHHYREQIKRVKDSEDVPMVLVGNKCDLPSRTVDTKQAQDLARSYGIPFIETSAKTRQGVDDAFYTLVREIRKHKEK
Sequence of KRAS WT (P62937 whole entry): as the sequence (P62937 whole entry) above
Excerpt: as §1, §2, §3, §4

[11] = AsPC-1, K-Ras G12D, 5-day treatment
[12] = ASPC1, AsPC-1 cells, K-Ras G12D, read-out: pERK EC50 (AsPC-1 KRAS G12D)
[13] = ASPC1, read-out: pERK EC50 (AsPC-1 KRAS G12D)

T1 sequence (P01111 whole entry G12C): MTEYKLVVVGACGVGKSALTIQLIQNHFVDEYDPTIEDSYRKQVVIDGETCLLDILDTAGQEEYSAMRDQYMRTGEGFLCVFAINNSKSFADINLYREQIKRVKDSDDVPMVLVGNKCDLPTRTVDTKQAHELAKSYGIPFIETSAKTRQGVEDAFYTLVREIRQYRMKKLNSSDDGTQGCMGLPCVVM
T1 sequence (P62937 whole entry): as the sequence (P62937 whole entry) above

Row | SMILES | IC50 [1] | IC50 [2] | IC50 [3] | IC50 [4] | IC50 [5, 11] | IC50 [6] | IC50 [7] | IC50 [8] | EC50 [9, 12] | IC50 [10] | IC50 [5] | EC50 [9, 13]
1 | CCn1c(-c2cccnc2[C@H](C)OC)c2c3cc(ccc31)-c1cc(O)cc(c1)C[C@H](NC(=O)[C@H](C(C)C)N(C)C(=O)[C@@H]1CN(C(=O)[C@H]3CN3)C[C@@H]1C)C(=O)N1CCC[C@H](N1)C(=O)OCC(C)(C)C2 [Compound 88] | < 10 nM | 10 to 100 nM | 10 to 100 nM | 10 to 100 nM | 100 to 1000 nM | < 10 nM | 10 to 100 nM | 10 to 100 nM | < 5000 nM | 10 to 100 nM | – | –
2 | CCn1c(-c2cccnc2[C@H](C)OC)c2c3cc(ccc31)-c1cc(O)cc(c1)C[C@H](NC(=O)[C@H](C(C)C)N1CC[C@]3(CCCN(C(=O)[C@@H]4CN4)C3)C1=O)C(=O)N1CCC[C@H](N1)C(=O)OCC(C)(C)C2 [Compound 192] | < 10 nM | 100 to 1000 nM | 100 to 1000 nM | 1000 to 10000 nM | 1000 to 10000 nM | < 10 nM | 10 to 100 nM | 100 to 1000 nM | < 5000 nM | 100 to 1000 nM | – | –
3 | CCn1c(-c2cnccc2COC)c2c3cc(ccc31)-c1cc(O)cc(c1)C[C@H](NC(=O)[C@H](C(C)C)N(C)C(=O)[C@H]1CCN(C(=O)N3C[C@@H]3C(=O)OC)C1)C(=O)N1CCC[C@H](N1)C(=O)OCC(C)(C)C2 [Compound 94] | 100 to 1000 nM | 10 to 100 nM | 1000 to 10000 nM | 100 to 1000 nM | > 10000 nM | 10 to 100 nM | 100 to 1000 nM | 100 to 1000 nM | < 5000 nM | 100 to 1000 nM | – | –
4 | CCn1c(-c2cnccc2COC)c2c3cc(ccc31)-c1cc(O)cc(c1)C[C@H](NC(=O)[C@H](C(C)C)N(C)C(=O)CN(C)C(=O)[C@H]1CN1C(=O)OC)C(=O)N1CCC[C@H](N1)C(=O)OCC(C)(C)C2 [Example 38, methyl (2R)-2-((2-(((2S)-1-(((6^3S,4S)-1^1-ethyl-2^5-hydroxy-1^2-(4-(methoxymethyl)pyridin-3-yl)-10,10-dimethyl-5,7-dioxo-6^1,6^2,6^3,6^4,6^5,6^6-hexahydro-1^1H-8-oxa-1(5,3)-indola-6(1,3)-pyridazina-2(1,3)-benzenacycloundecaphane-4-yl)amino)-3-methyl-1-oxobutan-2-yl)(methyl)amino)-2-oxoethyl)(methyl)carbamoyl)aziridine-1-carboxylate] | 10 to 100 nM | 10 to 100 nM | 100 to 1000 nM | 100 to 1000 nM | – | 10 to 100 nM | 100 to 1000 nM | 10 to 100 nM | – | 100 to 1000 nM | 1000 to 10000 nM | < 5000 nM
5 | CCn1c(-c2cccnc2[C@H](C)OC)c2c3cc(ccc31)-c1cc(O)cc(c1)C[C@H](NC(=O)[C@H](C(C)C)N1CC[C@@]3(CCN(C[C@H]4CN4)C3)C1=O)C(=O)N1CCC[C@H](N1)C(=O)OCC(C)(C)C2 [Compound 193] | 10 to 100 nM | 10 to 100 nM | 100 to 1000 nM | 10 to 100 nM | 1000 to 10000 nM | 10 to 100 nM | 1000 to 10000 nM | 100 to 1000 nM | < 5000 nM | 10 to 100 nM | – | –
6 | CCn1c(-c2cnccc2COC)c2c3cc(ccc31)-c1cc(O)cc(c1)C[C@H](NC(=O)[C@H](C(C)C)N(C)C(=O)CN(C)C(=O)[C@@H]1[C@H](C3CC3)N1[S@@+]([O-])C(C)(C)C)C(=O)N1CCC[C@H](N1)C(=O)OCC(C)(C)C2 (stereo partly shown) [Compound 101] | 10 to 100 nM | 100 to 1000 nM | 100 to 1000 nM | 100 to 1000 nM | – | 10 to 100 nM | 100 to 1000 nM | 100 to 1000 nM | – | 100 to 1000 nM | 1000 to 10000 nM | < 5000 nM
7 | CCn1c(-c2cccnc2[C@H](C)OC)c2c3cc(ccc31)-c1cc(O)cc(c1)C[C@H](NC(=O)[C@H](C(C)C)N1CC[C@@]3(CCCN(C(=O)[C@H]4CN4)C3)C1=O)C(=O)N1CCC[C@H](N1)C(=O)OCC(C)(C)C2 [Compound 199] | 100 to 1000 nM | 100 to 1000 nM | 100 to 1000 nM | 100 to 1000 nM | 1000 to 10000 nM | 100 to 1000 nM | 100 to 1000 nM | 100 to 1000 nM | < 5000 nM | 100 to 1000 nM | – | –
8 | CCn1c(-c2cnccc2COC)c2c3cc(ccc31)-c1cc(O)cc(c1)C[C@H](NC(=O)[C@H](C(C)C)N(C)C(=O)CN(C)C(=O)[C@@H]1CN1C(C)=O)C(=O)N1CCC[C@H](N1)C(=O)OCC(C)(C)C2 [Compound 35] | 10 to 100 nM | 10 to 100 nM | 100 to 1000 nM | 100 to 1000 nM | – | 10 to 100 nM | 100 to 1000 nM | 10 to 100 nM | – | 10 to 100 nM | 1000 to 10000 nM | < 5000 nM
9 | CCn1c(-c2cccnc2[C@H](C)OC)c2c3cc(ccc31)-c1cc(O)cc(c1)C[C@H](NC(=O)[C@H](C(C)C)N1CCC3(CCN(C(=O)[C@H]4CN4)CC3)C1=O)C(=O)N1CCC[C@H](N1)C(=O)OCC(C)(C)C2 [Compound 196] | < 10 nM | 10 to 100 nM | 100 to 1000 nM | 10 to 100 nM | 1000 to 10000 nM | < 10 nM | 100 to 1000 nM | 100 to 1000 nM | < 5000 nM | 10 to 100 nM | – | –
10 | CCn1c(-c2cnccc2COC)c2c3cc(ccc31)-c1cc(O)cc(c1)C[C@H](NC(=O)[C@H](C(C)C)N(C)C(=O)CN(C)C(=O)[C@H]1[C@@H](C)N1[S@+]([O-])C(C)(C)C)C(=O)N1CCC[C@H](N1)C(=O)OCC(C)(C)C2 (stereo partly shown) [Compound 53] | 10 to 100 nM | 10 to 100 nM | 100 to 1000 nM | 100 to 1000 nM | – | 10 to 100 nM | 100 to 1000 nM | 10 to 100 nM | – | 10 to 100 nM | 1000 to 10000 nM | < 5000 nM
